According to US20140011799A1 (Bristol-Myers Squibb Company, priority 2012, published 2014):

Biological target: T1, Endothelial lipase (EL) (Homo sapiens, UniProt Q9Y5X9)
T1 construct: HT-1080 cells that were transformed using RAGE technology (Athersys) to overexpress endogenous EL; endogenous in cells; conditioned medium used
T1 sequence (Q9Y5X9 21-500): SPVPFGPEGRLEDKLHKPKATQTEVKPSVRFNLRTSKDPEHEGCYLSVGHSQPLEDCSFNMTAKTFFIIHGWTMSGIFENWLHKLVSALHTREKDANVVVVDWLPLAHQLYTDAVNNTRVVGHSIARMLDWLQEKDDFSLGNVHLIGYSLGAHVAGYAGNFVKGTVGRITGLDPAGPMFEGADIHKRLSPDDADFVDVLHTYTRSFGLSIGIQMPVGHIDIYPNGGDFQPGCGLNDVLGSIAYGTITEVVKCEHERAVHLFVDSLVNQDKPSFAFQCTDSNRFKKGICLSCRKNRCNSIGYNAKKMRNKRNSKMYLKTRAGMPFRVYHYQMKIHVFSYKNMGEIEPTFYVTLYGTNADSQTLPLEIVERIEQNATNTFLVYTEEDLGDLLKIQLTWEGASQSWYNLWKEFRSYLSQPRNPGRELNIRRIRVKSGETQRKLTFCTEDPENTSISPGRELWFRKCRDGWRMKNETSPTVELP
Experiment: Endothelial lipase (EL) enzymatic assay, fluorescent substrate A10070 in DMPG vesicles
Format: biochemical
Settings: EL from conditioned media of HT-1080 cells; compound preincubated 30 min at 37° C; read-out: EL IC50
Procedure: Endothelial lipase (EL) and hepatic lipase (HL) activities were measured using a fluorescent substrate, A10070, (Invitrogen, CA) doped into an artificial vesicle containing DMPG (Avanti Polar Lipids) as the excipient. Vesicles were prepared by combining 571 μL of 29 mM DMPG in a 1:1 mixture of MeOH and CHCl3 with 2000 μL of 1 mM A10070 in a 1:1 mixture of MeOH and CHCl3. The mixture was dried under nitrogen in multiple vials then resuspended in 20 mL total volume of 50 mM HEPES pH 8.0 buffer containing 50 mM NaCl and 0.2 mM EDTA. The sample was allowed to sit at room temperature for 15 min and then was sonicated 3×4 mins on ice with a Branson Sonicator using duty cycle 1. This preparation provides vesicles with a mole fraction of 0.11 for the FRET substrate.
The enzymatic assay was measured using 384-well white Optiplates. Each well contained 20 μL of assay buffer (50 mM HEPES pH 8.0, 50 mM NaCl and 1 mM CaCl2) and 0.25 μL of a DMSO solution containing a compound of interest. EL or HL (10 μL) was added and allowed to incubate with the compound for 30 min at 37° C. The source of EL was conditioned media obtained from HT-1080 cells that were transformed using RAGE technology (Athersys) to overexpress endogenous EL, and HL was partially purified from conditioned media obtained from COS cells overexpressing HL. The reaction was started by the addition of 10 μL of a 1:10 dilution of vesicles. The final total reaction volume was […]. The reaction rates were measured on a Gemini plate reader with an excitation wavelength of 490 nm and an emission wavelength of 530 nm. Readings were taken over a period of 60 minutes, and the slope between 300 and 900 secs of the readout was used to calculate the rate of the reaction.

Row | IC50 [nM] | Structure (SMILES)
1 | 14900 | CC(O)(c1nnc(CNS(N)(=O)=O)o1)c1nc2ccc(-c3ccc(F)nc3)cc2s1 (stereo not shown) [Reference 4, N-((5-(1-(6-(6-Fluoro-3-pyridinyl)-1,3-benzothiazol-2-yl)-1-hydroxyethyl)-1,3,4-oxadiazol-2-yl)methyl)sulfamide, reference compound]
2 | 11 | CC1(Cc2nnc(C(c3nc4ccc(-c5ccc(F)nc5)cc4s3)S(=O)(=O)Cc3ccccc3)o2)NC(=O)NC1=O (single isomer, unassigned; isomer a) [Example 6, 5-((5-((benzylsulfonyl)(6-(6-fluoropyridin-3-yl)benzo[d]thiazol-2-yl)methyl)-1,3,4-oxadiazol-2-yl)methyl)-5-methylimidazolidine-2,4-dione (Isomer A)]
3 | < 10 | Cc1nn(C)cc1-c1ccc2nc(C(c3nnc(CC4SC(=O)NC4=O)o3)S(C)(=O)=O)sc2c1 (stereo not shown) [Example 20, 5-((5-((6-(1,3-dimethyl-1H-pyrazol-4-yl)benzo[d]thiazol-2-yl)(methylsulfonyl)methyl)-1,3,4-oxadiazol-2-yl)methyl) thiazolidine-2,4-dione]
4 | < 10 | CS(=O)(=O)C(c1nnc(CS(=O)(=O)O)o1)c1nc2ccc(-c3ccccc3)cc2s1 (stereo not shown) [Example 28, (5-((methylsulfonyl) (6-phenyl-1,3-benzothiazol-2-yl)methyl)-1,3,4-oxadiazol-2-yl) methanesulfonic acid]
5 | < 10 | CC(C)CS(=O)(=O)C(c1nnc(CNS(N)(=O)=O)o1)c1nc2ccc(-c3ccccc3)cc2s1 (stereo not shown) [Example 68, N-[(5-{6-phenyl-1,3-benzothiazol-2-yl[(2-methylpropyl)sulfonyl]methyl}-1,3,4-oxadiazol-2-yl)methyl]sulfuric diamide]
6 | 14 | COc1nc(-c2nnc(C(c3nc4ccc(-c5ccc(F)cc5)cc4s3)S(C)(=O)=O)o2)c(O)c(=O)[nH]1 (stereo not shown) [Example 43, 6-(5-((6-(4-Fluorophenyl)benzo[d]thiazol-2-yl)(methylsulfonyl)methyl)-1,3,4-oxadiazol-2-yl)-5-hydroxy-2-methoxypyrimidin-4(3H)-one]
7 | 281 | CC1(Cc2nnc(C(c3nc4ccc(-c5ccc(F)nc5)cc4s3)S(C)(=O)=O)o2)NC(=O)NC1=O (single isomer, unassigned; isomer a) [Example 21, 5-((5-((6-(6-fluoropyridin-3-yl)benzo[d]thiazol-2-yl)(methylsulfonyl)methyl)-1,3,4-oxadiazol-2-yl)methyl)-5-methylimidazolidine-2,4-dione (Isomer A)]
8 | < 10 | NS(=O)(=O)NCc1nnc(C(c2nc3ccc(-c4ccccc4)cc3s2)S(=O)(=O)CC2CCCCC2)o1 (stereo not shown) [Example 71, N-((5-(((cyclohexylmethyl)sulfonyl)(6-phenyl-1,3-benzothiazol-2-yl)methyl)-1,3,4-oxadiazol-2-yl)methyl)sulfamide]
9 | 11 | NS(=O)(=O)NCc1nnc(C(c2nc3ccc(-c4ccc(F)nc4)cc3s2)S(=O)(=O)Cc2ccc(C(F)(F)F)nc2)o1 (stereo not shown) [Example 76, N-({5-[6-(6-fluoro-3-pyridinyl)-1,3-benzothiazol-2-yl({[6-(trifluoromethyl)pyridin-3-yl]methyl}sulfonyl)methyl]-1,3,4-oxadiazol-2-yl}methyl) sulfuric diamide]
10 | < 10 | CCS(=O)(=O)C(c1nnc(CNS(N)(=O)=O)o1)c1nc2ccc(-c3ccccc3)cc2s1 (stereo not shown) [Example 65, N-({5-[(ethylsulfonyl) (6-phenyl-1,3-benzothiazol-2-yl)methyl]-1,3,4-oxadiazol-2-yl}methyl)sulfuric diamide]
11 | 46 | CS(=O)(=O)C(c1nnc(CC2NC(=O)NC2=O)o1)c1nc2ccc(-c3ccc(C(=O)N4CCOCC4)cc3)cc2s1 (stereo not shown) [Example 16, 5-((5-((methylsulfonyl)(6-(4-(morpholine-4-carbonyl)phenyl)benzo[d]thiazol-2-yl)methyl)-1,3,4-oxadiazol-2-yl)methyl)imidazolidine-2,4-dione]
12 | 14 | CC(C)(C)OC(=O)N1CC(c2nnc(C(c3nc4ccc(-c5ccccc5)cc4s3)S(=O)(=O)Cc3ccccc3)o2)C1 (stereo not shown) [Example 33, tert-butyl 3-(5-((benzylsulfonyl) (6-phenylbenzo[d]thiazol-2-yl)methyl)-1,3,4-oxadiazol-2-yl)azetidine-1-carboxylate]
13 | < 10 | N#CC1(NC(=O)Cc2nnc(C(c3nc4ccc(-c5ccccc5)cc4s3)S(=O)(=O)Cc3ccccc3)o2)CC1 (stereo not shown) [Example 40, 2-(5-((benzylsulfonyl)(6-phenylbenzo[d]thiazol-2-yl)methyl)-1,3,4-oxadiazol-2-yl)-N-(1-cyanocyclopropyl)acetamide]
14 | < 10 | CC1(Cc2nnc(C(c3nc4ccc(-c5ccc(F)nc5)cc4s3)S(=O)(=O)Cc3ccccc3)o2)SC(=O)NC1=O (single isomer, unassigned; isomer b) [Example 4, 5-((5-((benzylsulfonyl)(6-(6-fluoropyridin-3-yl)benzo[d]thiazol-2-yl)methyl)-1,3,4-oxadiazol-2-yl)methyl)-5-methylthiazolidine-2,4-dione (Isomer B)]
15 | 188 | CC1(Cc2nnc(C(c3nc4ccc(-c5ccc(F)nc5)cc4s3)S(=O)(=O)Cc3ccccc3)o2)NC(=O)NC1=O (single isomer, unassigned; isomer b) [Example 7, 5-((5-((benzylsulfonyl)(6-(6-fluoropyridin-3-yl)benzo[d]thiazol-2-yl)methyl)-1,3,4-oxadiazol-2-yl)methyl)-5-methylimidazolidine-2,4-dione (Isomer B)]
16 | < 10 | CC1(Cc2nnc(C(c3nc4ccc(-c5ccc(F)nc5)cc4s3)S(C)(=O)=O)o2)SC(=O)NC1=O (single isomer, unassigned; isomer b) [Example 18, 5-((5-((6-(6-fluoropyridin-3-yl)benzo[d]thiazol-2-yl)(methylsulfonyl)methyl)-1,3,4-oxadiazol-2-yl)methyl)-5-methylthiazolidine-2,4-dione (Isomer B)]
17 | < 10 | CS(=O)(=O)C(c1nnc(C[C@@H]2NS(=O)(=O)NC2=O)o1)c1nc2ccc(-c3ccccc3)cc2s1 (stereo partly drawn) [Example 45, (4S)-4-((5-((Methylsulfonyl)(6-phenylbenzo[d]thiazol-2-yl)methyl)-1,3,4-oxadiazol-2-yl)methyl)-1,2,5-thiadiazolidin-3-one 1,1-dioxide]
18 | 12 | CC1(Cc2nnc(C(c3nc4ccc(-c5ccc(C(=O)N6CCOCC6)cc5)cc4s3)S(C)(=O)=O)o2)NC(=O)NC1=O (single isomer, unassigned; isomer a) [Example 14, 5-methyl-5-((5-((methylsulfonyl)(6-(4-(morpholine-4-carbonyl)phenyl)benzo[d]thiazol-2-yl)methyl)-1,3,4-oxadiazol-2-yl)methyl)imidazolidine-2,4-dione (Isomer A)]
19 | < 10 | Cc1ccccc1CS(=O)(=O)C(c1nnc(CNS(N)(=O)=O)o1)c1nc2ccc(-c3ccccc3)cc2s1 (stereo not shown) [Example 70, N-((5-(((2-methylbenzyl)sulfonyl)(6-phenyl-1,3-benzothiazol-2-yl)methyl)-1,3,4-oxadiazol-2-yl)methyl) sulfamide]
20 | < 10 | CC(C)(C)OC(=O)N1CC(S(=O)(=O)C(c2nnc(CS(N)(=O)=O)o2)c2nc3ccc(-c4ccccc4)cc3s2)C1 (stereo not shown) [Example 38, tert-butyl 3-(((6-phenylbenzo[d]thiazol-2-yl)(5-(sulfamoylmethyl)-1,3,4-oxadiazol-2-yl)methyl)sulfonyl)azetidine-1-carboxylate]
21 | 26 | CC(C)(C)CN1CC(c2nnc(C(c3nc4ccc(-c5ccccc5)cc4s3)S(=O)(=O)Cc3ccccc3)o2)C1 (stereo not shown) [Example 82, 2-((Benzylsulfonyl)(6-phenylbenzo[d]thiazol-2-yl)methyl)-5-(1-neopentylazetidin-3-yl)-1,3,4-oxadiazole]

Row | Structure (SMILES) | IC50 [nM]
22 | NS(=O)(=O)NCc1nnc(C(c2nc3ccc(-c4ccc(F)nc4)cc3s2)S(=O)(=O)Cc2ccccc2)o1 (stereo not shown) [Example 75, N-((5-((benzylsulfonyl) (6-(6-fluoro-3-pyridinyl)-1,3-benzothiazol-2-yl)methyl)-1,3,4-oxadiazol-2-yl)methyl)sulfamide] | < 10
